Assays:
[1] = Comparative pharmacokinetic study, single-dose administration in minipigs; assay type: in vivo; details: male, Göttingen, minipig, plasma
Experimental: A comparative pharmacokinetic study was then performed by evaluating the plasma concentration profiles of doxophylline and its deuterated analogues after intravenous and oral single-dose administration in mice and minipigs. […] Since the deuterium kinetic isotope effect is often affected by interspecies variability,[28] a PK study was also performed in minipigs. […] A total of 96 CD1 male mice, approximately 6 weeks old and with a body weight of approximately 30 g, were purchased from Envigo RMS srl, (San Pietro al Natisone, UD, Italy). Four males Göttingen minipigs approximately 4-5 months old and weighing 9-11 Kg were purchased from Ellegaard Göttingen Minipigs (Dalmose, Denmark). Protocol for drug administration and blood sampling. Mice. Blood samples were collected under light isoflurane anaesthesia from the sublingual vein at the following time points (n=3): pre-dose and 5, 15, 30 minutes, 1, 2, 4, 8 and 24 hours after i.v. dosing (20 mg/Kg, dose volume 5 mL/Kg) and pre-dose and 15, 30 minutes, 1, 2, 4, 8 and 24 hours after oral gavage dosing (80 mg/Kg, dose volume 5 mL/Kg). Each animal was sampled on each day at a maximum of two alternating time points. Samples were transferred into tubes containing K3EDTA as anticoagulant, centrifuged, and stored at -80 °C. Minipig. Blood samples were collected from the jugular vein at the following time points (n=4): pre-dose and 5, 15, 30 minutes, 1, 2, 4, 8 and 24 hours after i.v. dosing (5 mg/Kg, dose volume 1 mL/Kg) and pre-dose and 15, 30 minutes, 1, 2, 4, 8 and 24 hours after oral gavage dosing (20 mg/Kg, dose volume 4 mL/Kg). Samples were transferred into tubes containing K3EDTA as anticoagulant, centrifuged, and stored at -80 °C. Sample preparation for HPLC-MS analysis. A volume of 50 µL of caffeine solution (1 mg/L in water-methanol 1:1) were added to plasma sample aliquots (50 µL); after the addition of the precipitant solution (100 µL of 10% ice-cold trichloroacetic acid in water), samples were centrifuged at 13,000 rpm for ten minutes and the supernatant injected onto the HPLC system (see supporting information for chromatographic conditions). If the levels of analytes were over range, plasma samples were preventively diluted with blank plasma. Data analysis. Quantification of doxophylline and its deuterated analogues d4 and d7 as well as their main metabolites, 7- theophylline acetic acid (T-COOH), 7-hydroxyethyl theophylline (Eto) and theophylline, was performed by using the calibration curves obtained with the corresponding working standards of the analytes and using caffeine as internal standard. The pharmacokinetic parameters for doxophylline and its deuterated analogues were calculated by plotting the plasma concentration curves versus time obtained from the average values of three animals, using PK Solver 2.0.1 S7

[2] = test system: BLM-induced lung injury; experiment: Bleomycin (BLM)-induced lung injury model; assay type: in vivo; details: BLM-treated mice, 80 mg/kg orally daily; for fibrosis: collagen fibers, Masson's Trichrome and Picrosirius red staining, semiquantitative: versus vehicle group
Experimental: With regard to the BLM-induced lung injury, we treated mice orally with 80 mg/kg doxophylline, d4-doxophylline, or d7-doxophylline daily (Figure 6a). […] Finally, to investigate the fibrosis, we performed a semiquantitative analysis on the Masson’s Trichrome- and Picrosirius red-stained sections in order to evaluate the presence and the packing of collagen fibers. […] Furthermore, an interesting association of the inflammatory infiltrate and stromal remodeling was observed. Indeed, the decrease in the interstitial inflammatory state led to a reduction of fibrosis in the doxophylline- and d7-treated groups, as can be observed in the respective representative images.
Figure 6 Model of pulmonary fibrosis induced by bleomycin. Doxophylline and d7-doxophylline attenuate BLM-induced structural damage and lung fibrosis in mice. (a) Representative scheme of the BLM-induced lung injury model. (b) Total BAL cellularity of sham mice (not treated) and bleomycin-treated mice (treated or not with 80 mg/kg doxophylline, d4-doxophylline, or d7-doxophylline). Results are reported as mean ± SEM of three independent experiments. (c) Wet/dry lung weight ratio of sham and bleomycin-treated mice (treated or not with 80 mg/kg doxophylline, d4-doxophylline, or d7-doxophylline). Results are reported as mean ± SEM of three independent experiments. (d) MPO activity in lungs of sham and bleomycin-treated mice (treated or not with 80 mg/kg doxophylline, d4-doxophylline and d7-doxophylline). Results are reported as mean ± SEM of three independent experiments. (e) Representative images of H&E staining of sham and bleomycin-treated mice (treated or not with 80 mg/kg doxophylline, d4-doxophylline, or d7-doxophylline). (f, g) Representative images of (f) Masson’s trichrome staining and (g) Picrorius red staining of sham and bleomycin-treated mice (treated or not with 80 mg/kg doxophylline, d4-doxophylline, or d7-doxophylline). p values: *, p < 0.05; **, p < 0.01; ***, p < 0.001; ****, p < 0.0001.
8-week-old male C57Bl/6 mice (Envigo, Indianapolis, USA) weighing between 25 and 30 g were used. Animal care was in compliance with Italian regulations on protection of animals used for experimental purposes and were authorized by the Ministry of Health. We administered BLM (0.02U/50µl) by mouse pharyngeal aspiration, under isoflurane ana esthesia.2 Doxophylline, d4 or d7 ([…], solubilized in 0.9% NaCl solution) or saline treatment (vehicle) was given orally (gavage administration) 1 h before BLM treatment, and then once a day thereafter. Mice were euthanized on day 21 following BLM treatment.
BAL was performed through a tracheal cannula using 1 mL aliquots of ice -cold Ca2+/Mg2+-free phosphate-buffered medium (145 mM NaCl, 5 mM KCl, 1.9 mM NaH 2PO4, 9.35 mM Na2HPO4, and 5.5 mM dextrose, pH 7.4). BAL samples were centrifuged at 500× g for 5 min at 4 °C, and cell pellets were washed an d resuspended in phosphate -buffered medium. BAL cells were enumerated by counting on a Hemocytometer the presence of the trypan blue stain.
Myeloperoxidase (MPO) activity, a marker of polymorphonuclear leukocyte (PMN) infiltration, was determined using MPO Colorimetric Activity Assay Kit (Merck Life Science), according to the manufacturer’s protocol. MPO activity was described as the amount of enzyme degrading 1 μM of peroxide/minute at 37°C and was expressed in U/mg of wet tissue.
Evaluation of fluid content in lungs.
The wet lung weight was calculated after harvesting the lungs, without any extraneous tissue. The lung s were subjected for 72 hours at 100°C and the dry weight was measured. Water content was calculated b y subtracting dry weight from wet weight.
Lungs were fixed with 10% buffered formalin at room temperature for 48h, dehydrated in 70% ethanol, and embedded in paraffin with Diapath automatic processor. Sections (4 μm thick) were stained with hae matoxylin and eosin (H&E) according to standard protocol and samples were mounted in Eukitt (Bio -Optica). To […]

Row | AUC(0-t) ([1]; intravenous, 5 mg/kg) | Cmax ([1]; intravenous, 5 mg/kg) | clearance ([1]; intravenous, 5 mg/kg) | half-life ([1]; intravenous, 5 mg/kg) | AUC(0-t) ([1]; oral, 20 mg/kg) | CL/F ([1]; oral, 20 mg/kg) | Cmax ([1]; oral, 20 mg/kg) | half-life ([1]; oral, 20 mg/kg) | SMILES | MPO activity in lungs [2] | accumulation of immune cells in bronchoalveolar lavage (total BAL cellularity) [2] | histological examination by H&E staining [2] | ratio between wet and dry lung [2] | fibrosis: collagen fibers, Masson's Trichrome and Picrosirius red staining, semiquantitative [2]
1 | 47.7 µg·h/mL | 7500 ng/mL | 1.67 mL/min/kg | 6.2 h | 217 µg·h/mL | 1.17 mL/min/kg | 14000 ng/mL | 11 h | Cn1c(=O)c2c(ncn2CC2OCCO2)n(C)c1=O [doxophylline] | decreased | significantly reverted | decrease in the inflammatory interstitial infiltrate | decreased liquid accumulation | slight tendency toward reduction in thickness and packing of collagen fibers
2 | 47 µg·h/mL | 8260 ng/mL | 1.67 mL/min/kg | 6.5 h | 222 µg·h/mL | 1.17 mL/min/kg | 13000 ng/mL | 12.6 h | [2H]C1([2H])OC([2H])(C([2H])([2H])n2cnc3c2c(=O)n(C)c(=O)n3C)OC1([2H])[2H] [d7-doxophylline] | decreased | significantly reverted | decrease in the inflammatory interstitial infiltrate | decreased liquid accumulation | slight tendency toward reduction in thickness and packing of collagen fibers
3 | 49.2 µg·h/mL | 7420 ng/mL | 1.67 mL/min/kg | 6.2 h | 236 µg·h/mL | 1.17 mL/min/kg | 15800 ng/mL | 10.8 h | [2H]C1([2H])OC(Cn2cnc3c2c(=O)n(C)c(=O)n3C)OC1([2H])[2H] [d4-doxophylline] | – | of lesser extent and lacked statistical significance | decrease in the inflammatory interstitial infiltrate | – | slight tendency toward reduction in thickness and packing of collagen fibers
